Measured values as given in US20240360177A1, “PEPTIDES WITH ANTIMICROBIAL ACTIVITIES” (priority 2021, published 2024).
≈ marks a conversion by molar mass, not a printed value. Where two headings read alike, the source gives them in different places. Starred links: 1 amine or outer side, 2 acyl side, 3 side chain; linkers in the order of their positions; H or OH if unused. Non-standard residues stand in square brackets, D forms with d. Residues, ends and D or L forms follow the SMILES beside them. NH(CH2)9CO = O=C(CCCCCCCCCN[*:1])[*:2]; Aoc = NCCCCCCCC(=O)O; βAla = NCCC(=O)O

Assays:
C. albicans = settings: 24 h
C. glabrata = settings: 24 h
C. parapsilosis = settings: 24 h
C. krusei = settings: 24 h
C. auris = settings: 24 h
C. tropicalis = settings: 24 h
C. dubliniensis = settings: 24 h
C. neoformans = settings: 72 h
C. gattii = settings: 72 h
Coccidioides species = settings: N = 3 strains; 48-72 hrs; >50% inhibition
in vitro = settings: human
[1] = Acute toxicity in CD-1 mice; settings: both sexes, mouse, in vivo
Protocol: Acute toxicity and subacute toxicity of ACPs were tested in CD-1 mice. In the acute toxicity study, groups of CD-1 male or female mice were administered single intravenous or intraperitoneal escalating doses (n=2-3 per dose) of the peptides dissolved in normal saline for injection or in phosphate buffered saline. The intravenous dose was administered via tail vein with a slow push over 15-20 seconds. Doses were escalated based on tolerability.

[2] = system: Staphylococcus aureus ATCC 29213; type: cell-based
[3] = system: Escherichia coli ATCC 25922; type: cell-based
[4] = system: Pseudomonas aeruginosa ATCC 27853; type: cell-based
[5] = EC50 cytotoxicity in HepG2, intracellular ATP assay
[6] = single IP dose, read-out: Tolerated single intraperitoneal dose
[7] = single IV dose via tail vein, read-out: Tolerated single intravenous dose

| Compound | MIC C. albicans (C. albicans) [µg/mL] | MIC C. glabrata (C. glabrata) [µg/mL] | MIC C. parapsilosis (C. parapsilosis) [µg/mL] | MIC C. krusei (C. krusei) [µg/mL] | MIC C. auris (C. auris) [µg/mL] | MIC C. tropicalis (C. tropicalis) [µg/mL] | MIC C. dubliniensis (C. dubliniensis) [µg/mL] | MIC C. neoformans (C. neoformans) [µg/mL] | MIC C. gattii (C. gattii) [µg/mL] | MIC Range Fusarium spp. (Fusarium spp.; 48 h) [µg/mL] | MIC Range Scedosporium spp. (Scedosporium spp.; 72 h) [µg/mL] | EC50 (in vitro; [5]) [µg/mL] | also measured |
| --- | --- | --- | --- | --- | --- | --- | --- | --- | --- | --- | --- | --- | --- |
| CC[C@@H]([C@H](C)O)n1ncn(-c2ccc(N3CCN(c4ccc(OC[C@@H]5CO[C@@](Cn6cncn6)(c6ccc(F)cc6F)C5)cc4)CC3)cc2)c1=O [POS, posaconazole, reference compound] |  |  |  |  |  |  |  |  |  |  |  |  | MIC Range Rhizopus arrhizus (Rhizopus arrhizus; N = 3 strains, 24 hrs): 0.12 to 0.25 µg/mL; MIC Range Paecilomyces variotii (Paecilomyces variotii; N = 1 strain, 48 hrs): ≤0.03 µg/mL |
| N=C(N)NCCC[C@@H](N)C(=O)N[C@@H](CCCNC(=N)N)C(=O)N[C@H](CCCNC(=N)N)C(=O)NCC(=O)N[C@H](CCCNC(=N)N)C(=O)N[C@@H](CCCNC(=N)N)C(=O)N[C@H](CCCNC(=N)N)C(=O)NCC(=O)N[C@H](CCCNC(=N)N)C(=O)N[C@@H](CCCNC(=N)N)C(=O)N[C@H](CCCNC(=N)N)C(=O)N[C@@H](CCCNC(=N)N)C(=O)NCC(=O)N[C@H](CCCNC(=N)N)C(=O)N[C@@H](CCCNC(=N)N)C(=O)N[C@H](CCCNC(=N)N)C(=O)N[C@@H](CCCNC(=N)N)C(=O)O [SEQ ID NO: 3, rRr-G-rRr-G-rRrR-G-rRrR] (H-[dR]R[dR]G[dR]R[dR]G[dR]R[dR]RG[dR]R[dR]R-OH) | 0.5 (≈ 0.21 µM) | 0.25 (≈ 0.105 µM) | 0.25 (≈ 0.105 µM) | 1 (≈ 0.421 µM) | 4 (≈ 1.68 µM) | 0.25 (≈ 0.105 µM) | 0.25 (≈ 0.105 µM) | 0.5 (≈ 0.21 µM) | 0.5 (≈ 0.21 µM) | 0.12 to 0.5 | ≤0.12 | > 300 | MIC Range Coccidioides species (Coccidioides species): 0.25 to 0.5 µg/mL; MIC Range Lomentospora prolificans (Lomentospora prolificans): ≤0.12 µg/mL; MIC Range Rhizopus arrhizus (Rhizopus arrhizus; 24 h): 1 to 8 µg/mL; MIC Range Paecilomyces variotii (Paecilomyces variotii; 48 h): 0.25 µg/mL (≈ 0.105 µM); MIC50 against Candida spp. (Candida spp.): 0.5 µg/mL (≈ 0.21 µM); MIC90 against Candida spp. (Candida spp.): 4 µg/mL (≈ 1.68 µM); EC50 (in vitro; EC50 cytotoxicity in HepG2 cells (50% cell viability)): > 300 µg/mL |
| N=C(N)NCCC[C@@H](N)C(=O)N[C@@H](CCCNC(=N)N)C(=O)N[C@H](CCCNC(=N)N)C(=O)NCC(=O)N[C@H](CCCNC(=N)N)C(=O)N[C@@H](CCCNC(=N)N)C(=O)N[C@H](CCCNC(=N)N)C(=O)NCC(=O)N[C@H](CCCNC(=N)N)C(=O)N[C@@H](CCCNC(=N)N)C(=O)N[C@H](CCCNC(=N)N)C(=O)N[C@@H](CCCNC(=N)N)C(=O)NCC(=O)N[C@H](CCCNC(=N)N)C(=O)N[C@@H](CCCNC(=N)N)C(=O)N[C@H](CCCNC(=N)N)C(=O)N[C@@H](CCCNC(=N)N)C(N)=O [SEQ ID NO: 4, rRr-G-rRr-G-rRrR-G-rRrR-NH2] (H-[dR]R[dR]G[dR]R[dR]G[dR]R[dR]RG[dR]R[dR]R-NH2) | 0.5 (≈ 0.211 µM) | 0.25 (≈ 0.105 µM) | 0.25 (≈ 0.105 µM) | 0.5 (≈ 0.211 µM) | 8 (≈ 3.37 µM) | 0.25 (≈ 0.105 µM) | 0.25 (≈ 0.105 µM) | 0.25 (≈ 0.105 µM) | 0.5 (≈ 0.211 µM) | 0.06 to 8 | ≤0.12 | > 300 | MIC Range Coccidioides species (Coccidioides species): 0.25 to 0.5 µg/mL; MIC Range Lomentospora prolificans (Lomentospora prolificans): ≤0.12 µg/mL; MIC Range Rhizopus arrhizus (Rhizopus arrhizus; 24 h): 0.5 to 8 µg/mL; MIC Range Paecilomyces variotii (Paecilomyces variotii; 48 h): 0.25 µg/mL (≈ 0.105 µM) |
| N=C(N)NCCC[C@@H](N)C(=O)N[C@H](CCCNC(=N)N)C(=O)N[C@H](CCCNC(=N)N)C(=O)NCCC(=O)N[C@H](CCCNC(=N)N)C(=O)N[C@H](CCCNC(=N)N)C(=O)N[C@H](CCCNC(=N)N)C(=O)NCCC(=O)N[C@H](CCCNC(=N)N)C(=O)N[C@H](CCCNC(=N)N)C(=O)N[C@H](CCCNC(=N)N)C(=O)N[C@H](CCCNC(=N)N)C(=O)NCCC(=O)N[C@H](CCCNC(=N)N)C(=O)N[C@H](CCCNC(=N)N)C(=O)N[C@H](CCCNC(=N)N)C(=O)N[C@H](CCCNC(=N)N)C(N)=O [SEQ ID NO: 14, rrr-(Apr)-rrr-(Apr)-rrrr-(Apr)-rrrr-NH2] (H-[dR][dR][dR][βAla][dR][dR][dR][βAla][dR][dR][dR][dR][βAla][dR][dR][dR][dR]-NH2) | 1 (≈ 0.414 µM) | 0.5 (≈ 0.207 µM) | 0.12 (≈ 0.0497 µM) | 0.5 (≈ 0.207 µM) | 0.5 (≈ 0.207 µM) | 0.25 (≈ 0.103 µM) | 0.5 (≈ 0.207 µM) | 0.5 (≈ 0.207 µM) | 0.25 (≈ 0.103 µM) | 0.12 to 0.25 | 0.25 (≈ 0.103 µM) | > 300 | MTD [1, 6]: 10 to 15 mg/kg; MTD [1, 7]: 5 to 7.5 mg/kg; MIC50 Candida species (Candida spp.): 0.5 µg/mL (≈ 0.207 µM); MIC90 Candida species (Candida spp.): 2 µg/mL (≈ 0.828 µM) |
| N=C(N)NCCC[C@@H](N)C(=O)N[C@@H](CCCNC(=N)N)C(=O)N[C@H](CCCNC(=N)N)C(=O)NCCC(=O)N[C@H](CCCNC(=N)N)C(=O)N[C@@H](CCCNC(=N)N)C(=O)N[C@H](CCCNC(=N)N)C(=O)NCCC(=O)N[C@H](CCCNC(=N)N)C(=O)N[C@@H](CCCNC(=N)N)C(=O)N[C@H](CCCNC(=N)N)C(=O)N[C@@H](CCCNC(=N)N)C(=O)NCCC(=O)O [SEQ ID NO: 17, rRr-(Apr)-rRr-(Apr)-rRrR-(Apr)] (H-[dR]R[dR][βAla][dR]R[dR][βAla][dR]R[dR]R[βAla]-OH) | 4 (≈ 2.23 µM) | >64 | 2 (≈ 1.12 µM) | 1 (≈ 0.558 µM) | >64 | 4 (≈ 2.23 µM) | 8 (≈ 4.46 µM) | 64 (≈ 35.7 µM) | 8 (≈ 4.46 µM) | 16 to 64 |  | > 300 | MIC Staphylococcus aureus [2]: >64 µg/mL; MIC Escherichia coli [3]: >64 µg/mL; MIC Pseudomonas aeruginosa [4]: >64 µg/mL |
| N=C(N)NCCC[C@@H](N)C(=O)N[C@@H](CCCNC(=N)N)C(=O)N[C@H](CCCNC(=N)N)C(=O)NCCCCCCCCCC(=O)N[C@H](CCCNC(=N)N)C(=O)N[C@@H](CCCNC(=N)N)C(=O)N[C@H](CCCNC(=N)N)C(=O)NCCCCCCCC(=O)N[C@H](CCCNC(=N)N)C(=O)N[C@@H](CCCNC(=N)N)C(=O)N[C@H](CCCNC(=N)N)C(=O)N[C@@H](CCCNC(=N)N)C(=O)NCCCCCCCC(=O)N[C@H](CCCNC(=N)N)C(=O)N[C@@H](CCCNC(=N)N)C(=O)N[C@H](CCCNC(=N)N)C(=O)N[C@@H](CCCNC(=N)N)C(N)=O [SEQ ID NO: 33, rRr-(Ada)-rRr-(Aoa)-rRrR-(Aoa)-rRrR-NH2] (H-[dR]R[dR][NH(CH2)9CO][dR]R[dR][Aoc][dR]R[dR]R[Aoc][dR]R[dR]R-NH2) | 1 (≈ 0.377 µM) | 0.5 (≈ 0.188 µM) | 0.5 (≈ 0.188 µM) | 0.5 (≈ 0.188 µM) | 0.5 (≈ 0.188 µM) | 0.5 (≈ 0.188 µM) | 0.25 (≈ 0.0941 µM) | 0.25 (≈ 0.0941 µM) | 0.5 (≈ 0.188 µM) | 0.25 to 0.5 | 0.25 (≈ 0.0941 µM) | > 300 | MIC Staphylococcus aureus [2]: 16 µg/mL (≈ 6.03 µM); MIC Escherichia coli [3]: 16 µg/mL (≈ 6.03 µM); MIC Pseudomonas aeruginosa [4]: 32 µg/mL (≈ 12.1 µM); MTD [1, 6]: 10 to 15 mg/kg; MTD [1, 7]: 5 to 7.5 mg/kg |
| C[C@@H](c1ncncc1F)[C@](O)(Cn1cncn1)c1ccc(F)cc1F [VOR, voriconazole, reference compound] |  |  |  |  |  |  |  |  |  |  |  |  | MIC Range Fusarium spp. (Fusarium spp.; N = 3 strains, 48 hrs): 4 to 16 µg/mL; MIC Range Scedosporium spp. (Scedosporium spp.; N = 2 strains, 72 hrs): 1 to 2 µg/mL; MIC Range Lomentospora prolificans (Lomentospora prolificans; N = 1 strain): 16 µg/mL (≈ 45.8 µM); MIC Range Paecilomyces variotii (Paecilomyces variotii; N = 1 strain, 48 hrs): 0.12 µg/mL (≈ 0.344 µM) |
